Measurements published in ChEMBL document CHEMBL1147043, “Comparative metabolism of radiolabeled muraglitazar in animals and humans by quantitative and qualitative metabolite profiling” (Drug Metab Dispos, 2007).

Key:
[1] = Biodistribution in orally dosed cynomolgus monkey feces assessed as 12-hydroxy-O-demethyl muraglitazar level by LC/MS analysis; type: ADME, organism-based, Macaca fascicularis; settings: in vivo, po
[2] = Biodistribution in orally dosed cynomolgus monkey urine assessed as O-dealkyl-O-demethyl muraglitazar level by LC/MS analysis; type: ADME, organism-based, Macaca fascicularis; settings: in vivo, po
[3] = Metabolic stability in CD1 mouse hepatocytes assessed as hydroxyl-O-demethyl muraglitazar glucuronide level by LC/MS analysis relative to control; type: ADME, cell-based, Hepatocyte
Rattus norvegicus [4] = assay: Biodistribution in orally dosed Sprague-Dawley rat urine assessed as O-dealkyl-O-demethyl muraglitazar level by LC/MS analysis; type: ADME, organism-based; settings: in vivo, po
[5] = Biodistribution in orally dosed human urine assessed as 12-hydroxy-O-demethyl muraglitazar level by LC/MS analysis; type: ADME, organism-based; settings: in vivo, po
Plasma [6] = assay: Biodistribution in orally dosed cynomolgus monkey plasma assessed as 12-hydroxy-O-demethyl muraglitazar level after 1 hr by LC/MS analysis; type: ADME, organism-based, Macaca fascicularis; settings: in vivo, po
[7] = Biodistribution in orally dosed human feces assessed as 17-hydroxy muraglitazar level by LC/MS analysis; type: ADME, organism-based; settings: in vivo, po
Plasma [8] = assay: Biodistribution in orally dosed cynomolgus monkey plasma assessed as O-Dealkyl muraglitazar level after 4 hrs by LC/MS analysis; type: ADME, organism-based, Macaca fascicularis; settings: in vivo, po
Hepatocyte [9] = assay: Metabolic stability in human hepatocytes assessed as muraglitazar glucuronide level by LC/MS analysis relative to control; type: ADME, cell-based
Plasma [10] = assay: Biodistribution in orally dosed Beagle dog plasma assessed as 12-hydroxy-O-demethyl muraglitazar level after 12 hrs by LC/MS analysis; type: ADME, organism-based, Canis lupus familiaris; settings: in vivo, po
Hepatocyte [11] = assay: Metabolic stability in Sprague-Dawley rat hepatocytes assessed as 17-hydroxy muraglitazar level by LC/MS analysis relative to control; type: ADME, cell-based
Hepatocyte [12] = assay: Metabolic stability in human hepatocytes assessed as 12,17-dihydroxy muraglitazar level by LC/MS analysis relative to control; type: ADME, cell-based
Plasma [13] = assay: Biodistribution in orally dosed Sprague-Dawley rat plasma assessed as muraglitazar glucuronide level after 12 hrs by LC/MS analysis; type: ADME, organism-based; settings: in vivo, po
Plasma [14] = assay: Biodistribution in orally dosed cynomolgus monkey plasma assessed as […] muraglitazar level after 4 hrs by LC/MS analysis; type: ADME, organism-based, Macaca fascicularis; settings: in vivo, po
Rattus norvegicus [15] = assay: Biodistribution in orally dosed Sprague-Dawley rat urine assessed as O-demethyl muraglitazar glucuronide level by LC/MS analysis; type: ADME, organism-based; settings: in vivo, po
[16] = Biodistribution in orally dosed human urine assessed as 8-hydroxy muraglitazar level by LC/MS analysis; type: ADME, organism-based; settings: in vivo, po
[17] = Fecal excretion rate in orally dosed Sprague-Dawley rat within 24 hrs; type: ADME, organism-based; settings: faeces, po, read-out: Activity
[18] = Metabolic stability in cynomolgus monkey hepatocytes assessed as hydroxyl-O-demethyl muraglitazar glucuronide level by LC/MS analysis relative to control; type: ADME, cell-based, Macaca fascicularis, Hepatocyte
[19] = Metabolic stability in cynomolgus monkey hepatocytes assessed as 17-hydroxy muraglitazar level by LC/MS analysis relative to control; type: ADME, cell-based, Macaca fascicularis, Hepatocyte
Plasma [20] = assay: Biodistribution in orally dosed Beagle dog plasma assessed as O-Dealkyl muraglitazar level after 12 hrs by LC/MS analysis; type: ADME, organism-based, Canis lupus familiaris; settings: in vivo, po
Rattus norvegicus [21] = assay: Biodistribution in orally dosed Sprague-Dawley rat urine assessed as 17-hydroxy muraglitazar level by LC/MS analysis; type: ADME, organism-based; settings: in vivo, po
[22] = Fecal excretion of compound in orally dosed human within 48 hrs; type: ADME, organism-based; settings: faeces, po, read-out: Activity
Hepatocyte [23] = assay: Metabolic stability in Sprague-Dawley rat hepatocytes assessed as di-oxygenated muraglitazar level by LC/MS analysis relative to control; type: ADME, cell-based
[24] = Metabolic stability in cynomolgus monkey hepatocytes assessed as 8-hydroxy-O-demethyl muraglitazar level by LC/MS analysis relative to control; type: ADME, cell-based, Macaca fascicularis, Hepatocyte
Rattus norvegicus [25] = assay: Biodistribution in orally dosed Sprague-Dawley rat urine assessed as 9-hydroxy muraglitazar level by LC/MS analysis; type: ADME, organism-based; settings: in vivo, po
Plasma [26] = assay: Biodistribution in orally dosed Sprague-Dawley rat plasma assessed as 8-hydroxy-O-demethyl muraglitazar level after 12 hrs by LC/MS analysis; type: ADME, organism-based; settings: in vivo, po
Hepatocyte [27] = assay: Metabolic stability in human hepatocytes assessed as hydroxyl muraglitazar glucuronide level by LC/MS analysis relative to control; type: ADME, cell-based
[28] = Biodistribution in orally dosed cynomolgus monkey feces assessed as muraglitazar glucuronide level by LC/MS analysis; type: ADME, organism-based, Macaca fascicularis; settings: in vivo, po
Hepatocyte [29] = assay: Metabolic stability in Sprague-Dawley rat hepatocytes assessed as hydroxyl muraglitazar glucuronide level by LC/MS analysis relative to control; type: ADME, cell-based
Plasma [30] = assay: Biodistribution in orally dosed cynomolgus monkey plasma assessed as 17-hydroxy-O-demethyl muraglitazar level after 4 hrs by LC/MS analysis; type: ADME, organism-based, Macaca fascicularis; settings: in vivo, po
[31] = Biodistribution in orally dosed cynomolgus monkey feces assessed as O-dealkyl-O-demethyl muraglitazar level by LC/MS analysis; type: ADME, organism-based, Macaca fascicularis; settings: in vivo, po
Plasma [32] = assay: Biodistribution in orally dosed human plasma assessed as muraglitazar glucuronide level after 12 hrs by LC/MS analysis; type: ADME, organism-based; settings: in vivo, po
[33] = Biodistribution in orally dosed cynomolgus monkey urine assessed as 17-hydroxy muraglitazar level by LC/MS analysis; type: ADME, organism-based, Macaca fascicularis; settings: in vivo, po
[34] = Tmax in human at 10 mg, po after 72 hrs; type: ADME, organism-based; settings: in vivo
Rattus norvegicus [35] = assay: AUC (0 to T) in Sprague-Dawley rat at 10 mg/kg, po after 24 hrs; type: ADME, organism-based, Plasma; set-up: time < 24 hr, dose 10 mg/kg, route oral; settings: in vivo
[36] = Biodistribution in orally dosed human feces assessed as acetylimide derivative of muraglitazar level by LC/MS analysis; type: ADME, organism-based; settings: in vivo, po
[37] = Biodistribution in orally dosed Beagle dog feces assessed as 17-hydroxy muraglitazar level by LC/MS analysis; type: ADME, organism-based, Canis lupus familiaris; settings: in vivo, po
[38] = Biodistribution in orally dosed human feces assessed as 8,12-dihydroxy muraglitazar level by LC/MS analysis; type: ADME, organism-based; settings: in vivo, po
Plasma [39] = assay: Biodistribution in orally dosed Sprague-Dawley rat plasma assessed as 12-dihydroxy muraglitazar level after 12 hrs by LC/MS analysis; type: ADME, organism-based; settings: in vivo, po
[40] = Biodistribution in orally dosed cynomolgus monkey feces assessed as 17-hydroxy-O-demethyl muraglitazar level by LC/MS analysis; type: ADME, organism-based, Macaca fascicularis; settings: in vivo, po
Plasma [41] = assay: Biodistribution in orally dosed cynomolgus monkey plasma assessed as muraglitazar glucuronide level after 1 hr by LC/MS analysis; type: ADME, organism-based, Macaca fascicularis; settings: in vivo, po
Hepatocyte [42] = assay: Metabolic stability in human hepatocytes assessed as 17-hydroxy-O-demethyl muraglitazar level by LC/MS analysis relative to control; type: ADME, cell-based
[43] = Tmax in Sprague-Dawley rat at 10 mg/kg, po after 24 hrs; type: ADME, organism-based; set-up: dose 10 mg/kg, route oral; settings: in vivo
Hepatocyte [44] = assay: Metabolic stability in Sprague-Dawley rat hepatocytes assessed as radioactivity recovaries at 25.6 ug/mL after 4 hrs; type: ADME, cell-based
Hepatocyte [45] = assay: Metabolic stability in Sprague-Dawley rat hepatocytes assessed as O-demethyl muraglitazar glucuronide level by LC/MS analysis relative to control; type: ADME, cell-based
Hepatocyte [46] = assay: Metabolic stability in Sprague-Dawley rat hepatocytes assessed as muraglitazar glucuronide level by LC/MS analysis relative to control; type: ADME, cell-based
Plasma [47] = assay: Biodistribution in orally dosed Beagle dog plasma assessed as 12-hydroxy-O-demethyl muraglitazar level after 4 hrs by LC/MS analysis; type: ADME, organism-based, Canis lupus familiaris; settings: in vivo, po
Hepatocyte [48] = assay: Metabolic stability in human hepatocytes assessed as 8,12-dihydroxy muraglitazar level by LC/MS analysis relative to control; type: ADME, cell-based
[49] = Drug concentration in bile duct-cannulated CD1 mouse urine assessed as recovery of radioactive dose at 1 mg/kg, po after 24 hrs; type: ADME, organism-based; set-up: dose 1 mg/kg, route oral; settings: in vivo
[50] = Biodistribution in orally dosed cynomolgus monkey feces assessed as O-demethyl muraglitazar level by LC/MS analysis; type: ADME, organism-based, Macaca fascicularis; settings: in vivo, po
[51] = Metabolic stability in CD1 mouse hepatocytes assessed as 9-hydroxy muraglitazar level by LC/MS analysis relative to control; type: ADME, cell-based, Hepatocyte
Plasma [52] = assay: Biodistribution in orally dosed cynomolgus monkey plasma assessed as 12,17-dihydroxy muraglitazar level after 4 hrs by LC/MS analysis; type: ADME, organism-based, Macaca fascicularis; settings: in vivo, po

## COc1ccc(OC(=O)N(CC(=O)O)Cc2ccc(OCCc3nc(-c4ccccc4)oc3C)cc2)cc1 [MURAGLITAZAR]
[1]
  Drug uptake: 1.61%
[2]
  Drug uptake: 0.33%
[3]
  Drug uptake: < 0.2%
Rattus norvegicus [4]
  Drug uptake: 0.21%
[5]
  Drug uptake: 0.16%
Plasma [6]
  Drug uptake: 1.5%
[7]
  Drug uptake: 5.92%
Plasma [8]
  Drug uptake: 0.3%
Hepatocyte [9]
  Drug uptake: 1.1%
Plasma [10]
  Drug uptake: 15%
Hepatocyte [11]
  Drug uptake: 2%
Hepatocyte [12]
  Drug uptake: 0.2%
Plasma [13]
  Drug uptake: 0.05%
Plasma [14]
  Drug uptake: 1.3%
Rattus norvegicus [15]
  Drug uptake: < 0.01%
[16]
  Drug uptake: 0.03%
[17]
  dose excreted at 24 h: 85%
[18]
  Drug uptake: < 0.2%
[19]
  Drug uptake: 7.9%
Plasma [20]
  Drug uptake: 9%
Rattus norvegicus [21]
  Drug uptake: < 0.01%
[22]
  dose excreted at 48 h: 25%
Hepatocyte [23]
  Drug uptake: 7.5%
[24]
  Drug uptake: < 0.2%
Rattus norvegicus [25]
  Drug uptake: < 0.01%
Plasma [26]
  Drug uptake: 0.05%
Hepatocyte [27]
  Drug uptake: 0.2%
[28]
  Drug uptake: 0.8%
Hepatocyte [29]
  Drug uptake: 0.5%
Plasma [30]
  Drug uptake: < 0.05%
[31]
  Drug uptake: 0.4%
Plasma [32]
  Drug uptake: 2.5%
[33]
  Drug uptake: 0.59%
[34]
  Tmax: 60 min
Rattus norvegicus [35]
  AUC: 105 ugequiv.h/ml
[36]
  Drug uptake: 3.21%
[37]
  Drug uptake: 1.78%
[38]
  Drug uptake: 1.36%
Plasma [39]
  Drug uptake: 0.2%
[40]
  Drug uptake: 3.22%
Plasma [41]
  Drug uptake: 0.1%
Hepatocyte [42]
  Drug uptake: 1.6%
[43]
  Tmax: 30 min
Hepatocyte [44]
  Stability: 96.5%
Hepatocyte [45]
  Drug uptake: < 0.2%
Hepatocyte [46]
  Drug uptake: 0.5%
Plasma [47]
  Drug uptake: 1%
Hepatocyte [48]
  Drug uptake: < 0.2%
[49]
  Drug uptake: 8.3%
[50]
  Drug uptake: 7.24%
[51]
  Drug uptake: 1.3%
Plasma [52]
  Drug uptake: 1.5%
